The text below walks through data of patent US20150031892A1, “SPHINGOLIPID METABOLITE MIMETICS” (Zhejiang University, priority 2012, published 2015).

Bounds are passed on as bounds.

What all share (type): cell-based
In one assay the test system is HepG2. As to the kind of experiment: MTT cytotoxicity assay, HepG2 (liver cancer). To be noted: Homo sapiens. The method, then:
(§1) Cell survival after exposure to the sphingolipid metabolite mimetics was examined by MTT cytotoxicity assay. HepG2, A431, HeLa, MCF-7 and SA cells (7000 cells/well) were seeded in each well of a 96-well plate for 24 h. New medium was added to give final concentrations of 0 to 200 μM of the sphingolipid metabolite mimetics. Then, 50 μl of 1 mg/ml 3-(4,5-dimethylthiazol-2-yl)-2,5-diphenyltetrazolium bromide (MTT, Sigma-Aldrich Chemical) was added to each well for 4 h incubation at 37° C. The purple formazan formed was then solubilized by DMSO and absorbance at 570 nm was read by a microplate reader (Molecular Devices, Sunnyvale, Calif.).
(Tetrazolium assays rely on reduction of a dye to a coloured formazan, in cell work by metabolically active cells.)

Assay [1] concerns multiple types of cancer cells. As to the kind of experiment: MTT cytotoxicity, statements over several cancer cell lines. The conditions noted are these: for direct anti-cancer cell activity: summary statement. The method, then:
as §1

Another assay has as its system SA. As to the kind of experiment: MTT cytotoxicity assay, SA (pancreatic cancer as headed). The protocol:
as §1

The subject of a further assay is SiHa. As to the kind of experiment: MTT cytotoxicity assay, SiHa (ovarian cancer as headed). To be noted: Homo sapiens, Cervical Cancer SiHa.
For a further assay, the system named is A431. As to the kind of experiment: MTT cytotoxicity assay, A431 (squamous carcinoma). To be noted: Homo sapiens, A-431. The method, then:
as §1

A further assay relates to SW480. As to the kind of experiment: MTT cytotoxicity assay, SW480 (colon cancer). To be noted: Homo sapiens.
The test system of a further assay is MCF-7. As to the kind of experiment: MTT cytotoxicity assay, MCF-7 (breast cancer). The conditions noted are these: Homo sapiens, MCF7; Breast Cancer MCF-7, MTT. The method, then:
as §1

For the next assay, the system named is SW620. As to the kind of experiment: MTT cytotoxicity assay, SW620 (colon cancer). To be noted: Homo sapiens, SW-620.

As a reminder, the IC50 is the concentration that gives 50% inhibition. Take `CCCCCCCCCCCCCCNC(=O)[C@@H](NS(=O)(=O)c1ccc2ccccc2c1)[C@@H](C)O` [NZJU62, N-((2S,3R)-3-hydroxy-1-oxo-1-(tetradecylamino)butan-2-yl)-2-naphthylsulfonamide]: the IC50 was determined as 11.4 ± 1.11 µM with HepG2; 10.2 ± 0.3 µM in the assay on SA; 11.1 ± 1.39 µM in the assay with SiHa; 19.6 ± 2.16 µM in the assay with A431; 5.76 ± 1.02 µM with SW480. Besides, the “direct anti-cancer cell activity” value in assay [1] is given as “direct anti-cancer cell activity”.
Consider `CCCCCCCCCCCCNC(=O)[C@@H](NC(=O)/C=C/c1ccccc1)[C@@H](C)O` [NZJU24, (E)-N-((2S,3R)-3-hydroxy-1-oxo-1-(dodecylamino)butan-2-yl)-3-phenyl acrylic acid amide], for which the IC50 in the assay with HepG2 is above 200 µM; in the assay on MCF-7, above 200 µM; in the assay on SA, 154.8 ± 1.16 µM; in the assay with SiHa, above 200 µM; with A431, above 200 µM; in the assay with SW620, at least 200 µM. Also, the IC50 in the assay with SW480 is above 200 µM.
On to `CCCCCCCCCCCCNC(=O)[C@@H](NC(=O)c1cccs1)[C@@H](C)O` [NZJU33, N-((2S,3R)-3-hydroxy-1-oxo-1-(dodecylamino)butan-2-yl)-2-thiophene carboxamide], for which the IC50 in the assay with HepG2 is 30.1 ± 3.84 µM; with MCF-7, 30.4 ± 2.8 µM; in the assay with SA it was 23.3 ± 3.33 µM; in the assay with SiHa it was 23.9 ± 3.65 µM; in the assay with A431, 16.6 ± 2.12 µM; in the assay on SW620 it was 29.2 ± 0.57 µM. The molecule also yielded an IC50 with SW480 of 30.2 µM. For the same molecule, in assay [1], the “direct anti-cancer cell activity” value is “direct anti-cancer cell activity”.
Regarding `CCCCCCCCCCCCCCCCCCNC(=O)[C@@H](NC(=O)/C=C/c1ccccc1)[C@@H](C)O` [NZJU26, (E)-N-((2S,3R)-3-hydroxy-1-oxo-1-(octadecylamino)butan-2-yl)-3-phenyl acrylic acid amide], the IC50 in the assay with HepG2 was 128 ± 9.04 µM; with MCF-7 it was 39.2 ± 2.21 µM; with SA, 47.1 ± 0.54 µM; in the assay on SiHa, 35.9 ± 2.64 µM; with A431 it was 177 ± 7.17 µM; in the assay on SW620, at least 200 µM. The same molecule yielded a half-maximal inhibitory concentration (IC50) with SW480 of 123 µM. In assay [1], the “direct anti-cancer cell activity” value was “direct anti-cancer cell activity”.
In the case of `C/C=C/C=C/C(=O)N[C@H](C(=O)NCCCCCCCCCCCCCC)[C@@H](C)O` [NZJU11, (2E,4E)-N-((2S,3R)-3-hydroxy-1-oxo-1-(tetradecylamino)butan-2-yl)-2,4-hexadienoic acid amide], the half-inhibitory concentration (IC50) was above 400 µM in the assay on HepG2; 27.76 ± 0.14 µM in the assay on MCF-7; 184 ± 1.9 µM with SA; above 200 µM in the assay on SiHa; above 200 µM with A431; at least 200 µM in the assay on SW620. Also, the concentration for half-maximal inhibition (IC50) with SW480 is above 200 µM.
With `CCCCCCCCNC(=O)[C@@H](NC(=O)c1ccco1)[C@@H](C)O` [NZJU40, N-((2S,3R)-3-hydroxy-1-oxo-1-(octylamino)butan-2-yl)-Furan-2-carboxamide], the IC50 in the assay on HepG2 is 192 ± 11.1 µM; in the assay with MCF-7, 91.8 ± 4.21 µM; in the assay with SA, 64.65 ± 0.5 µM; in the assay on SiHa, 124 ± 8.78 µM; with A431, 64.5 ± 0.78 µM; in the assay with SW620 it was at least 200 µM. In the assay on SW480, the half-inhibitory concentration (IC50) was 194 µM.
As to `CCCCCCCCCCCCCCNC(=O)[C@@H](NS(=O)(=O)c1ccc(C)cc1)[C@@H](C)O` [NZJU57, N-((2S,3R)-3-hydroxy-1-oxo-1-(tetradecylamino)butan-2-yl)-4-methylbenzsulfonamide], the IC50 was determined as 10.9 ± 0.54 µM with HepG2; 10.9 ± 1.25 µM in the assay with SA; 19.2 ± 2.14 µM with SiHa; 12 ± 1.87 µM in the assay on A431; 11.8 ± 1.38 µM with SW480. The “direct anti-cancer cell activity” value in assay [1] was “direct anti-cancer cell activity”.
As to `CCCCCCCCCCCCCCCCCCNC(=O)[C@@H](NC(=O)c1ccccc1)[C@@H](C)O` [NZJU18, N-((2S,3R)-3-hydroxy-1-oxo-1-(octadecylamino)butan-2-yl)-benzamide], the IC50 in the assay on HepG2 was above 400 µM; in the assay with MCF-7 it was 31.7 ± 6.55 µM; in the assay on SA, above 400 µM; in the assay with SiHa, 38.2 ± 2.52 µM; in the assay on A431 it was 113 ± 7.87 µM; in the assay on SW620 it was at least 200 µM. The molecule further had an IC50 with SW480 of 36.47 ± 0.23 µM.
`CCCCCCCCCCCCCCNC(=O)[C@@H](NS(=O)(=O)c1cccs1)[C@@H](C)O` [NZJU60, N-((2S,3R)-3-hydroxy-1-oxo-1-(tetradecylamino)butan-2-yl)-2-thiophene sulfonamide]: the IC50 was 21.6 ± 2.05 µM with HepG2; 11.6 ± 2.2 µM in the assay with SA; 20.4 ± 2.47 µM in the assay with SiHa; 22 ± 0.56 µM in the assay with A431; 11.8 ± 1.25 µM with SW480. Moreover, the “direct anti-cancer cell activity” value in assay [1] was “direct anti-cancer cell activity”.
For `CCCCCCCCCCCCCCNC(=O)[C@@H](NC(=O)c1ccccc1)[C@@H](C)O` [NZJU17, N-((2S,3R)-3-hydroxy-1-oxo-1-(tetradecylamino)butan-2-yl)-benzamide], the IC50 in the assay on HepG2 is 54.2 ± 3.95 µM; in the assay with MCF-7 it was 24.8 ± 6.75 µM; in the assay on SA, 56 ± 7.43 µM; in the assay on SiHa it was above 200 µM; in the assay on A431, 118 ± 9.09 µM; in the assay on SW620, at least 200 µM. Moreover, the IC50 in the assay with SW480 is at least 200 µM.
Consider `CCCCCCCCNC(=O)[C@@H](NC(=O)/C=C/c1ccccc1)[C@@H](C)O` [NZJU42, (E)-N-((2S,3R)-3-hydroxy-1-oxo-1-(octylamino)butan-2-yl)-3-phenyl acrylic acid amide], for which the IC50 in the assay on HepG2 was found to be 55.6 ± 0.64 µM; in the assay with MCF-7, 35.06 ± 0.2 µM; with SA it was 25.6 ± 4.41 µM; in the assay with SiHa, 41.4 ± 5.96 µM; in the assay with A431, 36 ± 3.36 µM; in the assay with SW620, 61.35 ± 0.27 µM. The same molecule showed a half-maximal inhibitory concentration (IC50) in the assay on SW480 of 62.7 µM.
Regarding `CCCCCCCCCCCCCCNC(=O)[C@@H](NC(=O)/C=C/c1ccccc1)[C@@H](C)O` [NZJU25, (E)-N-((2S,3R)-3-hydroxy-1-oxo-1-(tetradecylamino)butan-2-yl)-3-phenyl acrylic acid amide], the IC50 with HepG2 was 150 ± 4.37 µM; with MCF-7, 64.6 ± 4.54 µM; in the assay with SA, 80.9 ± 1.9 µM; in the assay with SiHa it was 35.8 ± 0.68 µM; with A431, 64.9 ± 4.87 µM; in the assay with SW620, at least 200 µM. Half-maximal inhibition with SW480 (IC50) required 86.9 µM.
For the molecule `CCCCCCCCCCCCCCNC(=O)[C@@H](N)[C@@H](C)O` [NZJU46, (2S,3R)-2-Amino-3-hydroxy-N-tetradecylbutanamide], in assay [1], the “direct anti-cancer cell activity” value is reported as “direct anti-cancer cell activity”. In addition, the IC50 turned out to be 10.7 ± 0.98 µM in the assay on MCF-7; 11 ± 1.39 µM in the assay with SA; 11 ± 1.39 µM in the assay with SiHa; 14.6 ± 0.76 µM with A431; 18.7 ± 3.81 µM in the assay on SW620.
As for `CCCCCCCCCCCCNC(=O)[C@@H](NC(=O)c1cc2ccccc2[nH]1)[C@@H](C)O` [NZJU47, N-((2S,3R)-3-hydroxy-1-oxo-1-(dodecylamino)butan-2-yl)-indole-2-carboxamide], the concentration for half-maximal inhibition (IC50) with HepG2 was 12 ± 2.38 µM; in assay [1] (multiple types of cancer cells, read-out: IC50), below 20 µM; in the assay on SA, 12.3 ± 2.75 µM; in the assay on SiHa, 21.25 ± 0.01 µM; in the assay on A431, 10.3 ± 2.78 µM; in the assay on SW480, 10.2 ± 0.73 µM. Besides, the “direct anti-cancer cell activity” value in assay [1] is given as “direct anti-cancer cell activity”.
